Experimental data taken from ChEMBL document CHEMBL1136982, “Discovery of 1-benzoyl-3-cyanopyrrolo[1,2-a]quinolines as a new series of apoptosis inducers using a cell- and caspase-based high-throughput screening assay. 2: Structure-activity relationships of the 4-, 5-, 6-, 7- and 8-positions” (Bioorg Med Chem Lett, 2009).
Active and inactive are the calls of the source. The rule behind the calls is not given here.

What was measured:
[1] = test system: HCT-116; assay: Induction of apoptosis in human HCT116 cells measured after 48 hrs by cell and caspase based HTS assay; assay type: functional; conditions: HCT-116, 48 h
[2] = test system: T47D; assay: Induction of apoptosis in human T47D cells measured after 48 hrs by cell and caspase based HTS assay; assay type: functional
[3] = test system: SNU-398; assay: Induction of apoptosis in human SNU398 cells measured after 48 hrs by cell and caspase based HTS assay; assay type: functional; conditions: SNU-398, 48 h
[4] = Inhibition of tubulin polymerization
[5] = test system: T47D; assay: Growth inhibition of human T47D cells after 48 hrs; assay type: functional
[6] = test system: HCT-116; assay: Growth inhibition of human HCT116 cells after 48 hrs; assay type: functional; conditions: HCT-116, 48 h
[7] = test system: SNU-398; assay: Growth inhibition of human SNU398 cells after 48 hrs; assay type: functional; conditions: SNU-398, 48 h
[8] = test system: T47D; assay: Cell cycle arrest in human T47D cells by accumulation at G2/M phase after 24 to 48 hrs by flow cytometry; assay type: functional, cell-based
[9] = Inhibition of tubulin polymerization up to 50 uM

EC50 [1] [nM] | EC50 [2] [nM] | EC50 [3] [nM] | IC50 [4] [nM] | GI50 [5] [nM] | GI50 [6] [nM] | GI50 [7] [nM] | Activity [9] | Compound | Activity [8]
1900 | 290 | 1400 | – | – | – | – | – | N#Cc1cc(C(=O)c2ccc(-n3ccnc3)cc2)n2c1ccc1c(Cl)cccc12 | –
> 10000 | 150 | > 10000 | – | – | – | – | – | N#Cc1cc(C(=O)c2cccc([N+](=O)[O-])c2)n2c1ccc1c(Cl)cccc12 | –
> 10000 | > 10000 | > 10000 | – | – | – | – | – | N#Cc1cc(C(=O)c2ccccc2)n2c1ccc1c(O)cccc12 | –
310 | 520 | 220 | < 5000 | – | – | – | – | Cc1cc2c(C#N)cc(C(=O)c3ccccc3)n2c2ccccc12 | –
> 10000 | 62 | > 10000 | – | – | – | – | – | N#Cc1cc(C(=O)c2ccc([N+](=O)[O-])cc2)n2c1ccc1c(Cl)cccc12 | –
5600 | 210 | 5000 | – | – | – | – | – | N#Cc1cc(C(=O)c2cccc(N)c2)n2c1ccc1c(Cl)cccc12 | –
> 10000 | 5800 | > 10000 | – | – | – | – | – | Cc1cc2ccccc2n2c(C(=O)c3ccccc3)cc(C#N)c12 | –
> 10000 | > 10000 | > 10000 | – | – | – | – | – | Cc1ccc2c(ccc3c(C#N)cc(C(=O)c4ccccc4)n32)c1 | –
3800 | 150 | 1400 | – | – | – | – | – | N#Cc1cc(C(=O)c2ccc(N)cc2)n2c1ccc1c(Cl)cccc12 | –
– | – | – | < 5000 | – | – | – | – | N#Cc1cc(C(=O)c2ccc(N)cc2)n2c1ccc1ccccc12 | –
> 10000 | 280 | 5000 | – | – | – | – | – | Cc1ccc2ccc3c(C#N)cc(C(=O)c4ccccc4)n3c2c1 | –
– | – | – | < 5000 | – | – | – | – | N#Cc1cc(C(=O)c2ccc(-n3ccnc3)cc2)n2c1ccc1ccccc12 | –
6000 | 2800 | 4900 | – | – | – | – | – | CN(C)CCOc1cccc2c1ccc1c(C#N)cc(C(=O)c3ccccc3)n12 | –
> 10000 | > 10000 | > 10000 | – | – | – | – | – | N#Cc1cc(C(=O)c2ccccc2)n2c1ccc1c(OCCN3CCOCC3)cccc12 | –
18 | 37 | 9 | – | 26 | 60 | 61 | – | CC(=O)O[C@H]1C(=O)[C@@]2(C)[C@H]([C@H](OC(=O)c3ccccc3)[C@]3(O)C[C@H](OC(=O)[C@H](O)[C@@H](NC(=O)c4ccccc4)c4ccccc4)C(C)=C1C3(C)C)[C@]1(OC(C)=O)CO[C@@H]1C[C@@H]2O [PACLITAXEL] | –
2700 | 280 | 2600 | – | 160 | 5900 | 2600 | inactive | N#Cc1cc(C(=O)c2cccc(O)c2)n2c1ccc1c(Cl)cccc12 | Active
3700 | 80 | 1500 | – | 18 | 8600 | 4800 | – | COc1cccc(C(=O)c2cc(C#N)c3ccc4c(Cl)cccc4n23)c1 | –
36 | 32 | 26 | – | 7 | 10 | 5 | – | CC[C@]1(O)C[C@@H]2CN(CCc3c([nH]c4ccccc34)[C@@](C(=O)OC)(c3cc4c(cc3OC)N(C)[C@H]3[C@@](O)(C(=O)OC)[C@H](OC(C)=O)[C@]5(CC)C=CCN6CC[C@]43[C@@H]65)C2)C1 [VINBLASTINE] | –
> 10000 | 53 | > 10000 | – | – | – | – | inactive | N#Cc1cc(C(=O)c2ccc(F)cc2)n2c1ccc1c(Cl)cccc12 | Active
> 10000 | > 10000 | > 10000 | – | – | – | – | – | N#Cc1cc(C(=O)c2ccccc2)n2c1ccc1cc(Cl)ccc12 | –
1900 | 83 | > 10000 | – | – | – | – | inactive | N#Cc1cc(C(=O)c2ccccc2)n2c1ccc1c(Cl)cccc12 | Active
> 10000 | > 10000 | > 10000 | – | – | – | – | – | N#Cc1cc(C(=O)c2ccccc2)n2c1ccc1c([N+](=O)[O-])cccc12 | –
